Ratio and Activity data for 27 compounds are collected here from ChEMBL document CHEMBL3745655, “Novel carbocyclic nucleoside analogs suppress glomerular mesangial cells proliferation and matrix protein accumulation through ROS-dependent mechanism in the diabetic milieu. II. Acylhydrazone-functionalized pyrimidines” (Bioorg Med Chem Lett, 2016).

The source made the active and inactive calls. The rule behind the calls is not given here.

Holding throughout (type): functional
Test [1] in a line: Antidiabetic activity in 24 hrs serum-deprived rat glomerular mesangial cells assessed as reduction of high glucose-induced fibronectin and beta-actin expression ratio at 5 uM after 48 hrs by Western blot analysis relative to control.
Test [2] can be described thus: Antidiabetic activity in 24 hrs serum-deprived rat glomerular mesangial cells assessed as reduction of high glucose-induced fibronectin and beta-actin expression ratio at 0.25 uM after 48 hrs by Western blot analysis relative to control. (In general: In western blotting, separated proteins are transferred to a membrane and probed.)
Test [3] is described as follows: Antidiabetic activity in 24 hrs serum-deprived rat glomerular mesangial cells assessed as reduction of high glucose-induced fibronectin and beta-actin expression ratio at 1 uM after 48 hrs by Western blot analysis relative to control.
Test [4] is described as follows: Antidiabetic activity in 24 hrs serum-deprived rat glomerular mesangial cells assessed as reduction of high glucose-induced fibronectin and beta-actin expression ratio at 0.5 uM after 48 hrs by Western blot analysis relative to control.
The species entered for test [5] is Rattus norvegicus. In words: Protection against high glucose-induced increase of cell proliferation in rat glomerular mesangial cells after 48 hrs by MTT assay. For orientation: Formazan colour is commonly taken as a measure of viable cells.
Test [6] can be described thus: Antidiabetic activity in 24 hrs serum-deprived rat glomerular mesangial cells assessed as reduction of high glucose-induced ROS production at 1 uM after 48 hrs by DHE staining.
Test [7] in a line: Antidiabetic activity in 24 hrs serum-deprived rat glomerular mesangial cells assessed as reduction of high glucose-induced ROS production at 5 uM after 48 hrs by DHE staining.

As for `O=C(CCn1ccc(O)nc1=O)N/N=C1\C[C@H](C(=O)O)[C@H](C(=O)O)C1` (racemic), the Ratio in test [1] is 117; in test [2] it was 75.1; in test [3], 96.7; in test [4] it was 80.
Regarding `CCOC(=O)[C@@H]1CC(=NNC(=O)CCn2ccc(O)nc2=O)C[C@H]1C(=O)OCC` (racemic), the figures for the Ratio in test [1], in test [3] and in test [4] were 94, 132 and 145, respectively. For the same compound, the result in test [5] and in test [6] was Active.
`O=C(CCn1ccc(O)nc1=O)NN=C1C[C@@H](C(=O)O)[C@H](C(=O)O)C1` (racemic): the Ratio came out at 96.9 in test [1], 132 in test [2], 115 in test [3] and 116 in test [4].
Consider `NNC(=O)CCn1ccc(N)nc1=O`, for which the Ratio in test [1] worked out at 80.8; in test [3] it was 81.6; in test [4] it was 76.5.
Turning to `CCOC(=O)[C@H]1C/C(=N\NC(=O)CCn2ccc(N)nc2=O)C[C@H]1C(=O)OCC` (racemic), the Ratio in test [1] was found to be 125; in test [3], 91; in test [4] it was 95.1.
Consider `Cc1cn(CCC(=O)NN)c(=O)nc1O`, for which the Ratio was 102 in test [1], 94 in test [3] and 89.2 in test [4].
For the compound `Nc1ccn(CCC(=O)NN=C2C[C@@H](C(=O)O)[C@H](C(=O)O)C2)c(=O)n1` (racemic), the Ratio in test [1] worked out at 107; in test [2], 123; in test [3] it was 128; in test [4] it was 126.
As for `CCOC(=O)[C@@H]1CC(=NNC(=O)CCn2ccc(N)nc2=O)C[C@H]1C(=O)OCC` (racemic), the Ratio in test [1] was 80.6; in test [3] it was 96.1; in test [4], 98.2. Further, the result in test [5] was inactive.
Turning to `O=C(CCn1ccc(O)nc1=O)NN=C1CCCC1`, the results for the Ratio in test [1], in test [3] and in test [4] were 64.3, 84.8 and 100, respectively. Further, the result in test [5] and in test [6] was Active.
Regarding `CCOC(=O)C1CCC/C1=N\NC(=O)CCn1cc(C)c(O)nc1=O` (racemic), the Ratio in test [1] came to 91.6; in test [3], 96.5; in test [4] it was 88.8. Besides, the result in test [5] was inactive.
Taken in the same sequence, the figures for `CCOC(=O)[C@H]1C/C(=N\NC(=O)CCn2ccc(O)nc2=O)C[C@H]1C(=O)OCC` (racemic) were 76.5, 93.7, 97.5 and “inactive”.
Take `CCOC(=O)[C@@H]1CC(=O)C[C@H]1C(=O)OCC` (racemic): the Ratio in test [1] was found to be 79.7; in test [2] it was 82.4; in test [3], 86.3; in test [4], 90.2.
On to `CCOC(=O)C1CCC/C1=N\NC(=O)CCn1ccc(N)nc1=O` (racemic), for which the Ratio in test [1] was 102; in test [3], 119; in test [4], 111.
Take `CCOC(=O)[C@H]1C/C(=N\NC(=O)CCn2cc(C)c(O)nc2=O)C[C@H]1C(=O)OCC` (racemic): the Ratio is 81.1 in test [1], 97.9 in test [3] and 91.9 in test [4].
As for `Cc1cn(CCC(=O)NN=C2CCCC2)c(=O)nc1O`, the figures for the Ratio in test [1], in test [3] and in test [4] were 127, 126 and 118, respectively.
For `Nc1ccn(CCC(=O)NN=C2CCCC2)c(=O)n1`, the Ratio in test [1] is 275; in test [3], 213; in test [4] it was 218.
Take `O=C1CCCC1`: the Ratio in test [1] was 129; in test [2], 82.8; in test [3], 114; in test [4], 101.
Take `CCOC(=O)[C@@H]1CC(=NNC(=O)CCn2cc(C)c(O)nc2=O)C[C@H]1C(=O)OCC` (racemic): the Ratio in test [1] came to 87.6; in test [3] it was 90.8; in test [4], 94.2.
Take `Cc1cn(CCC(=O)NN=C2C[C@@H](C(=O)O)[C@H](C(=O)O)C2)c(=O)nc1O` (racemic): the Ratio was 63.1 in test [1], 64.6 in test [3] and 78.4 in test [4]. The outcome in test [5] and in test [6] was Active.
On to `CCOC(=O)[C@H]1CC(=O)C[C@H]1C(=O)OCC`, for which the Ratio in test [1] is 84.2; in test [2], 81.8; in test [3] it was 88.9; in test [4] it was 79.8.
For `NNC(=O)CCn1ccc(O)nc1=O`, the Ratio in test [1] is 85.4; in test [3] it was 80.5; in test [4], 101. For the same compound, the result in test [7] and in test [5] was Active.
Regarding `Cc1cn(CCC(=O)N/N=C2\C[C@H](C(=O)O)[C@H](C(=O)O)C2)c(=O)nc1O` (racemic), the Ratio was determined as 70.7 in test [1], 72 in test [3] and 80.1 in test [4]. In addition, the outcome in test [5] and in test [6] was Active.
Turning to `O=C1C[C@H](C(=O)O)[C@H](C(=O)O)C1`, the Ratio in test [1] amounted to 121; in test [2], 129; in test [3], 145; in test [4], 149.
Turning to `Nc1ccn(CCC(=O)N/N=C2\C[C@H](C(=O)O)[C@H](C(=O)O)C2)c(=O)n1` (racemic), the Ratio stood at 113 in test [1], 136 in test [2], 142 in test [3] and 143 in test [4].
As for `CCOC(=O)C1CCCC1=O` (racemic), the Ratio worked out at 137 in test [1], 109 in test [2], 88.3 in test [3] and 110 in test [4].
On to `CCOC(=O)C1CCC/C1=N\NC(=O)CCn1ccc(O)nc1=O` (racemic), for which the Ratio was 106 in test [1], 126 in test [3] and 127 in test [4].
`O=C1C[C@@H](C(=O)O)[C@H](C(=O)O)C1` (racemic): the Ratio in test [1] was 124; in test [2] it was 135; in test [3] it was 149; in test [4], 143.
